From patent US10842847B2, “Treatment of degenerative joint disease” (Ampio Pharmaceuticals, Inc., priority 2011, dated 2020)
“Also recorded” adds a separate entry of the source.

Test system: oxidized collagen IV
Assay: Binding of DA-DKP and NAT to H2O2 treated collagen IV (LCMS of <5 kDa fraction)
Set-up: species or system human
Settings: for binding to oxidized collagen, result in words: equimolar concentration
Procedure: Collagen source: 1 mg/ml Collagen IV form human placenta in 0.25% acetic acid (Sigma™). The collagen was oxidixed with 500 μM H2O2 in 1×PBS for 1 hour at 37° C. The oxidized collagen IV (final=0.2 mg/ml) was then incubated with 2 μM DA-DKP or 2 NAT in PBS for 1 hour at 37° C. At the end of the incubation, the <5 kDa fraction was isolated by a VIVASPIN® 2 microcentrifugal filter having a molecular weight cutoff of 5,000. The <5 kDa fraction was analyzed for DA-DKP and/or NAT content using a liquid chromatograph-mass spectrometery (LCMS) method for DA-DKP analysis.

[1] = 2 μM + oxidized Collagen IV 0.2 mg/ml, 1 hour at 37° C., content of <5 kDa fraction

Row | Average % decrease [1] [%] | Average % decrease (2 μM + oxidized Collagen IV w/2 μM NAT) [%] | Average % decrease (2 μM + oxidized Collagen IV w/2 μM DA-DKP) [%] | Structure (SMILES) | binding to oxidized collagen, result in words
1 | 26.0 | 25.6 | – | C[C@@H]1NC(=O)[C@H](CC(=O)O)NC1=O [DA-DKP, aspartyl-alanyl diketopiperazine] | bind to oxidized forms of collagen
2 | 48.9 | – | 28.7 | CC(=O)N[C@@H](Cc1c[nH]c2ccccc12)C(=O)O [NAT, N-acetyl-tryptophan] | binds more to oxidized collagen IV than DA-DKP; also recorded: bind to oxidized forms of collagen
